Measurements as given in ChEMBL document CHEMBL1151841, “Dihydrostilbene derivatives from the Mongolian medicinal plant Scorzonera radiata” (J Nat Prod, 2009).
Active and inactive are the calls of the source. The rule behind the calls is not given here.

Tests used:
[1] = system: Radical scavenging activity; test: Antioxidant activity assessed as DPPH radical scavenging activity after 5 mins; format: functional
L5178Y = test: Cytotoxicity against mouse L5178Y cells at 10 ug/mL by MTT assay; format: functional, cell-based

IC50 [1] [µM]	Compound	Activity (L5178Y)
150	Oc1ccc(/C=C/c2cc(O)cc(O)c2)cc1 [RESVERATROL]	–
106	COc1cc(CCc2c(O)ccc(O[C@@H]3O[C@H](CO)[C@@H](O)[C@H](O)[C@H]3O)c2C(C)=O)ccc1O [SCORZODIHYDROSTILBENE A]	inactive
663	COc1ccc(CCc2c(O)ccc(O[C@@H]3O[C@H](CO)[C@@H](O)[C@H](O)[C@H]3O)c2C(C)=O)cc1OC [SCORZODIHYDROSTILBENE B]	inactive
486	CC(=O)c1c(O[C@@H]2O[C@H](CO)[C@@H](O)[C@H](O)[C@H]2O)ccc(O)c1CCc1ccc(O)cc1 [SCORZODIHYDROSTILBENE C]	–
731	COc1ccc(CCc2c(O[C@@H]3O[C@H](CO)[C@@H](O)[C@H](O)[C@H]3O)ccc(O)c2C(C)=O)cc1OC [SCORZODIHYDROSTILBENE D]	–
103	COc1cc(CCc2c(O)ccc(O[C@@H]3O[C@H](CO)[C@@H](O)[C@H](O)[C@H]3O)c2C(C)=O)cc(-c2cc(CCc3c(O)ccc(O[C@@H]4O[C@H](CO)[C@@H](O)[C@H](O)[C@H]4O)c3C(C)=O)cc(OC)c2O)c1O [SCORZODIHYDROSTILBENE E]	–
